Data set [1] concerns cells. In words: AP1903 amount needed in vitro for effective signaling of cells. In kind it is cell-based. Particulars: 1600 Da MW. How it is done: The fixed dose of AP1903 for injection used, for example, may be 0.4 mg/kg intravenously infused over 2 hours. The amount of AP1903 needed in vitro for effective signaling of cells is 10-100 nM (1600 Da MW). This equates to 16-160 μg/L or ^˜0.016-1.6 μg/kg (1.6-160 μg/kg). Doses up to 1 mg/kg were well-tolerated in the Phase I study of AP1903 described above. Therefore, 0.4 mg/kg may be a safe and effective dose of AP1903 for this Phase I study in combination with the therapeutic cells.

Data set [2] concerns cells. Particulars: cited from earlier work.
The conditions of data set [3]: cited from earlier work.
Data set [4] deals with T1, human CD58 (human, UniProt P19256 29-250).
T1 construct: whole, on cells
T1 sequence (looked up): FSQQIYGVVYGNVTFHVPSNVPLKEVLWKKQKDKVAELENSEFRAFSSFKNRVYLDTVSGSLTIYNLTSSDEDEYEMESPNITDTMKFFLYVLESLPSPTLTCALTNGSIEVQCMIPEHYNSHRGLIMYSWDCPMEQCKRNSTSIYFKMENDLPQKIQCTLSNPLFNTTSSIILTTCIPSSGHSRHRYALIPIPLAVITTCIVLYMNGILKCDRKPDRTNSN
In words: inferred from T-cell degranulation (CD107a) against K562/Rat2 cells overexpressing human CD58. Here is the method: FIG. 23D is a series of flow cytometry plots showing the expression of CD48, CD58 or CD59 on K562 and Rat2 cells. To confirm possible ligands for the CSR WT CD2z molecule, a panel of known and suspected ligands including human CD48, CD58, and CD59 were tested. Degranulation of engineered T cells was evaluated against the cell lines K562 and Rat2 that were made to overexpress the target ligands and confirmed for expression by FACS staining. Red histograms are unstained cells and blue histograms are cells that were electroporated/lipofected with mRNA and then stained for expression of the respective marker by FACS.
FIG. 23E is a bar graph showing that CSR CD2z recognizes human CD58, but not CD48 or CD59. To confirm possible ligands for the CSR WT CD2z molecule, a panel of known and suspected ligands including human CD48, CD58, and CD59 were tested. Degranulation of engineered T cells was evaluated against the cell lines K562 and Rat2 that were made to overexpress the target ligands and confirmed for expression by FACS staining. Cells were electroporated/lipofected with mRNA and then stained for expression of the respective marker by FACS. […] T cell degranulation is a surrogate of T cell killing that can be measured by FACS staining for intracellular CD107a expression following coculture with target cell lines expressing target antigen. […]

The values below come from patent publication US20220389077A1, “ALLOGENEIC CELL COMPOSITIONS AND METHODS OF USE” (Poseida Therapeutics, Inc., priority 2018, published 2022).

Like-named read-outs stand apart in the source and are kept apart here.

As to `CC[C@H](C(=O)N1CCCC[C@H]1C(=O)O[C@H](CCc1ccc(OC)c(OC)c1)c1cccc(OCC(=O)NCCNC(=O)COc2cccc([C@@H](CCc3ccc(OC)c(OC)c3)OC(=O)[C@@H]3CCCCN3C(=O)[C@@H](CC)c3cc(OC)c(OC)c(OC)c3)c2)c1)c1cc(OC)c(OC)c(OC)c1` (relative stereo) [AP1903, 2-Piperidinecarboxylic acid, 1-[(2S)-1-oxo-2-(3,4,5-trimethoxyphenyl)butyl]-, 1,2-ethanediylbis[imino(2-oxo-2,1-ethanediyl)oxy-3,1-phenylene[(1R)-3-(3,4-dimethoxyphenyl)propylidene]]ester, [2S-[1(R*),2R*[S*[S*[1(R*),2R*]]]]]-(9Cl)], the “amount needed for effective signaling, converted” value in data set [1] is 16 to 160 µg/L. Further, the “amount needed in vitro for effective signaling of cells” value in data set [2] was 10 to 100 nM. Besides, the “plasma levels versus dose” value in data set [3] (0.01, 0.05, 0.1, 0.5 and 1.0 mg/kg) is on record as “directly proportional to dose”. The “mean Cmax” value in data set [3] (0.01-1.0 mg/kg dose range, IV over 2 hours) is 10 to 1275 ng/mL. The entries for the “plasma level as % of maximal concentration” value in data set [3] (0.5 hours post-dose), in data set [3] (2 hours post-dose) and in data set [3] (10 hours post-dose) were “approximately 18%”, around 7% and around 1%, respectively. In addition, the well-tolerated doses entry in data set [3] (Phase I study) is reported as “up to 1 mg/kg”.

B1: CSR CD2z (chimeric stimulatory receptor: CD2 extracellular, transmembrane and cytoplasmic domains fused to the CD3z intracellular domain) (receptor)
chain: KEITNALETWGALGQDINLDIPSFQMSDDIDDIKWEKTSDKKKIAQFRKEKETFKEKDTYKLFKNGTLKIKHLKTDDQDIYKVSIYDTKGKNVLEKIFDLKIQERVSKPKISWTCINTTLTCEVMNGTDPELNLYQDGKHLKLSQRVITHKWTTSLSAKFKCTAGNKVSKESSVEPVSCPEKGLDIYLIIGICGGGSLLMVFVALLVFYITKRKKQRSRRNDEELETRAHRVATEERGRKPHQIPASTPQNPATSQHPPPPPGHRSQAPSHRPPPPGHRVQHQPQKRPPAPSGTQVHQQKGPPLPRPRVQPKPPHGAAENSLSPSSNRVKFSRSADAPAYKQGQNQLYNELNLGRREEYDVLDKRRGRDPEMGGKPRRKNPQEGLYNELQKDKMAEAYSEIGMKGERRRGKGHDGLYQGLSTATKDTYDALHMQALPPR
notes: Expressed from mRNA on the surface of primary human T cells (degranulation assays) or K562 cells (staining); also called CSR WT CD2z; WT CD2z CSR
B1: the binding result in data set [4] is recorded as “binds”.
